Measurements as given in PMC6979384, “Characterization of the plant homeodomain (PHD) reader family for their histone tail interactions” (Epigenetics & Chromatin, 2020).

How the values were obtained:
Assay in all cases: Histone peptide microarray
Assay type in all cases: binding, human
Conditions in all cases: histone peptide array
KDM5A (1) = test system: KDM5A (1)
How it was run: (§1)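 Histone peptide library (293 synthetic peptides, single/combinatorial PTMs) arrayed and probed with 0.5 μM purified GST-PHD domain; optimized protocol; quadruplicate mean and SD reported.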

CHD4 (PPCC) = test system: CHD4 (PPCC)
How it was run: as §1

RAG2 = test system: RAG2
How it was run: as §1

CHD5 (PCC) = test system: CHD5 (PCC)
How it was run: as §1

MORC3 (CW) = test system: MORC3 (CW)
How it was run: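 GST-tagged PHD finger readers were expressed, purified and applied at 0.5 μM to a microarray of 293 synthetic histone peptides carrying single or combinatorial PTMs, using an optimized protocol. Binding signals are averages with standard deviation from 4 replicates.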

PHF2 = test system: PHF2
How it was run: as §1

KDM7A = test system: KDM7A
How it was run: as §1

ING1 = test system: ING1
How it was run: as §1

PHF13 = test system: PHF13
How it was run: as §1

TRIM66 (PB) = test system: TRIM66 (PB)
How it was run: as §1

BAZ2B = test system: BAZ2B
How it was run: as §1

ING4 = test system: ING4
How it was run: as §1

MLL5 = test system: MLL5
How it was run: as §1

ING5 = test system: ING5
How it was run: as §1

PHF23 = test system: PHF23
How it was run: as §1

KDM5B (3) = test system: KDM5B (3)
How it was run: as §1

AIRE (PP) = test system: AIRE (PP)
How it was run: as §1

DPF2 (PPC2W2) = test system: DPF2 (PPC2W2)
How it was run: as §1

KDM5B (1) = test system: KDM5B (1)
How it was run: as §1

PHRF1 (RP) = test system: PHRF1 (RP)
How it was run: as §1

PHF21A = test system: PHF21A
How it was run: as §1

ING2 = test system: ING2
How it was run: as §1

ING3 = test system: ING3
How it was run: as §1

DIDO1 = test system: DIDO1
How it was run: as §1

BPTF (PB) = test system: BPTF (PB)
How it was run: as §1

CHD5 (PPCC) = test system: CHD5 (PPCC)
How it was run: as §1

KDM4C (TTP) = test system: KDM4C (TTP)
How it was run: as §1

TAF3 = test system: TAF3
How it was run: as §1

PHF8 = test system: PHF8
How it was run: as §1

KDM5A (3) = test system: KDM5A (3)
How it was run: as §1

SP140L = test system: SP140L
How it was run: as §1

[1] = sheet "Array Heatmap", GST-tagged reader, total n = 4

In the case of H3K4me3 + R8me2s + K9me3: H3 1-20, the “Array Heatmap signal, KDM5A (1)” value (KDM5A (1); GST-tagged KDM5A (1), arrays performed twice, n of 4) is reported as 0.429, the “Array Heatmap signal, CHD4 (PPCC)” value (CHD4 (PPCC); GST-tagged CHD4 (PPCC = Dual PHD + Dual Chromodomain), arrays performed twice, n of 4) is reported as 0.5208 and the “Array Heatmap signal, RAG2” value (RAG2; GST-tagged RAG2, arrays performed twice, n of 4) is reported as 0.4516. The “Array Heatmap signal, CHD5 (PCC)” value (CHD5 (PCC); GST-tagged CHD5 (PCC = PHD + Dual Chromodomain), arrays performed twice, n of 4) was 0.7143, the “Array Heatmap signal, MORC3 (CW)” value (MORC3 (CW); GST-tagged MORC3 (CW = CW-type Zn-finger), arrays performed twice, n of 4) was 0.5559 and the “Array Heatmap signal, PHF2” value (PHF2; GST-tagged PHF2, arrays performed twice, n of 4) was 0.8739. For the same substance, the “Array Heatmap signal, KDM7A” value (KDM7A; GST-tagged KDM7A, arrays performed twice, n of 4) was 0.3751, the “Array Heatmap signal, ING1” value (ING1; GST-tagged ING1, arrays performed twice, n of 4) was 0.7489 and the “Array Heatmap signal, PHF13” value (PHF13; GST-tagged PHF13, arrays performed twice, n of 4) was 0.633. For the same substance, the “Array Heatmap signal, TRIM66 (PB)” value (TRIM66 (PB); GST-tagged TRIM66 (PB = PHD + Bromodomain), arrays performed twice, n of 4) was 0.6066, the “Array Heatmap signal, BAZ2B” value (BAZ2B; GST-tagged BAZ2B, arrays performed twice, n of 4) was 0.4293 and the “Array Heatmap signal, ING4” value (ING4; GST-tagged ING4, arrays performed twice, n of 4) was 0.4627. The “Array Heatmap signal, MLL5” value (MLL5; GST-tagged MLL5, arrays performed twice, n of 4) was 0.7037, the “Array Heatmap signal, ING5” value (ING5; GST-tagged ING5, arrays performed twice, n of 4) was 0.3819 and the “Array Heatmap signal, PHF23” value (PHF23; GST-tagged PHF23, arrays performed twice, n of 4) was 0.6635. The “Array Heatmap signal, KDM5B (3)” value (KDM5B (3); GST-tagged KDM5B (3), arrays performed twice, n of 4) was 0.5614, the “Array Heatmap signal, AIRE (PP)” value (AIRE (PP); GST-tagged AIRE (PP), arrays performed twice, n of 4) was 0.378 and the “Array Heatmap signal, DPF2 (PPC2W2)” value (DPF2 (PPC2W2); GST-tagged DPF2 (PPC2W2 = Dual PHD + C2W2-type Zn-finger), arrays performed twice, n of 4) was 0.6565. For the same substance, the “Array Heatmap signal, KDM5B (1)” value (KDM5B (1); GST-tagged KDM5B (1), arrays performed twice, n of 4) was 0.5808, the “Array Heatmap signal, PHRF1 (RP)” value (PHRF1 (RP); GST-tagged PHRF1 (RP), arrays performed twice, n of 4) was 0.4616 and the “Array Heatmap signal, PHF21A” value (PHF21A; GST-tagged PHF21A, arrays performed twice, n of 4) was 0.4267. The “Array Heatmap signal, ING2” value (ING2; GST-tagged ING2, arrays performed twice, n of 4) was 0.784, the “Array Heatmap signal, ING3” value (ING3; GST-tagged ING3, arrays performed twice, n of 4) was 0.5388 and the “Array Heatmap signal, DIDO1” value (DIDO1; GST-tagged DIDO1, arrays performed twice, n of 4) was 0.802. The “Array Heatmap signal, BPTF (PB)” value (BPTF (PB); GST-tagged BPTF (PB = PHD + Bromodomain), arrays performed twice, n of 4) was 0.3866, the “Array Heatmap signal, CHD5 (PPCC)” value (CHD5 (PPCC); GST-tagged CHD5 (PPCC = Dual PHD + Dual Chromodomain), arrays performed twice, n of 4) was 0.5185 and the “Array Heatmap signal, KDM4C (TTP)” value (KDM4C (TTP); GST-tagged KDM4C (TTP = Tandem Tudor domain + PHD), arrays performed twice, n of 4) was 0.4847. For the same substance, the “Array Heatmap signal, TAF3” value (TAF3; GST-tagged TAF3, arrays performed twice, n of 4) was 0.3814, the “Array Heatmap signal, PHF8” value (PHF8; GST-tagged PHF8, arrays performed twice, n of 4) was 0.5138 and the “Array Heatmap signal, KDM5A (3)” value (KDM5A (3); GST-tagged KDM5A (3), arrays performed twice, n of 4) was 0.7166. For the same substance, the “Array Heatmap signal, SP140L” value (SP140L; GST-tagged SP140L, arrays performed twice, n of 4) was 0.3193.

In the case of H3K4me3 + T6p: H3 1-20, the “Array Heatmap signal, KDM5A (1)” value (KDM5A (1); [1]) is reported as 0.452, the “Array Heatmap signal, CHD4 (PPCC)” value (CHD4 (PPCC); [1]) is reported as 0.5535 and the “Array Heatmap signal, RAG2” value (RAG2; [1]) is reported as 0.2443. For the same substance, the “Array Heatmap signal, CHD5 (PCC)” value (CHD5 (PCC); [1]) was 0.7037, the “Array Heatmap signal, MORC3 (CW)” value (MORC3 (CW); [1]) was 0.3571 and the “Array Heatmap signal, PHF2” value (PHF2; [1]) was 0.6668. The “Array Heatmap signal, KDM7A” value (KDM7A; [1]) was 0.3405, the “Array Heatmap signal, ING1” value (ING1; [1]) was 0.5971 and the “Array Heatmap signal, PHF13” value (PHF13; [1]) was 0.5795. The “Array Heatmap signal, TRIM66 (PB)” value (TRIM66 (PB); [1]) was 0.549, the “Array Heatmap signal, BAZ2B” value (BAZ2B; [1]) was 0.4415 and the “Array Heatmap signal, ING4” value (ING4; [1]) was 0.4567. For the same substance, the “Array Heatmap signal, MLL5” value (MLL5; [1]) was 0.5684, the “Array Heatmap signal, ING5” value (ING5; [1]) was 0.3481 and the “Array Heatmap signal, PHF23” value (PHF23; [1]) was 0.5195. For the same substance, the “Array Heatmap signal, KDM5B (3)” value (KDM5B (3); [1]) was 0.4934, the “Array Heatmap signal, AIRE (PP)” value (AIRE (PP); [1]) was 0.4133 and the “Array Heatmap signal, DPF2 (PPC2W2)” value (DPF2 (PPC2W2); [1]) was 0.6833. The “Array Heatmap signal, KDM5B (1)” value (KDM5B (1); [1]) was 0.6162, the “Array Heatmap signal, PHRF1 (RP)” value (PHRF1 (RP); [1]) was 0.5056 and the “Array Heatmap signal, PHF21A” value (PHF21A; [1]) was 0.4225. The “Array Heatmap signal, ING2” value (ING2; [1]) was 0.6187, the “Array Heatmap signal, ING3” value (ING3; [1]) was 0.4695 and the “Array Heatmap signal, DIDO1” value (DIDO1; [1]) was 0.7585. For the same substance, the “Array Heatmap signal, BPTF (PB)” value (BPTF (PB); [1]) was 0.3519, the “Array Heatmap signal, CHD5 (PPCC)” value (CHD5 (PPCC); [1]) was 0.54 and the “Array Heatmap signal, KDM4C (TTP)” value (KDM4C (TTP); [1]) was 0.4688. The “Array Heatmap signal, TAF3” value (TAF3; [1]) was 0.309, the “Array Heatmap signal, PHF8” value (PHF8; [1]) was 0.3678 and the “Array Heatmap signal, KDM5A (3)” value (KDM5A (3); [1]) was 0.4911. For the same substance, the “Array Heatmap signal, SP140L” value (SP140L; [1]) was 0.3667.
